# Reference: ChEMBL document CHEMBL1141211, “2-(Quinazolin-4-ylamino)-[1,4]benzoquinones as covalent-binding, irreversible inhibitors of the kinase domain of vascular endothelial growth factor receptor-2” (J Med Chem, 2005)
# pIC50: −log10 of the molar value.
# Assays:
# [1] = Half life at 1 uM in the presence of 100 uM reduced glutathione in H2O-Acetonitrile (1:1); type: ADME; conditions: reduced glutathione solution in H2O-acetonitrile (1:1)
# [2] = Half life at 10 uM in the presence of 100 uM reduced glutathione in H2O-Acetonitrile (1:1); type: ADME; conditions: reduced glutathione solution in H2O-acetonitrile (1:1)
# [3] = biological target: T1, Vascular endothelial growth factor receptor 2 (Homo sapiens, UniProt P35968); experiment: Inhibition of poly(Glu4-Tyr)peptide phosphorylation by recombinant VEGFR2 at 10 uM ATP and in presence of 5% mouse plasma; type: cell-free
# [4] = biological target: T1, Vascular endothelial growth factor receptor 2; experiment: Inhibitory activity against VEGF stimulated autophosphorylation of VEGFR2 expressed in KDR15 cells; type: cell-based
# [5] = biological target: T1, Vascular endothelial growth factor receptor 2; experiment: Inhibition of poly(Glu4-Tyr)peptide phosphorylation by recombinant VEGFR2 at 10 uM ATP
# [6] = biological target: T1, Vascular endothelial growth factor receptor 2; experiment: Inhibition of poly(Glu4-Tyr)peptide phosphorylation by recombinant VEGFR2 at 10 uM ATP and in presence of 100 uM glutathione
# T1 sequence (P35968 whole entry): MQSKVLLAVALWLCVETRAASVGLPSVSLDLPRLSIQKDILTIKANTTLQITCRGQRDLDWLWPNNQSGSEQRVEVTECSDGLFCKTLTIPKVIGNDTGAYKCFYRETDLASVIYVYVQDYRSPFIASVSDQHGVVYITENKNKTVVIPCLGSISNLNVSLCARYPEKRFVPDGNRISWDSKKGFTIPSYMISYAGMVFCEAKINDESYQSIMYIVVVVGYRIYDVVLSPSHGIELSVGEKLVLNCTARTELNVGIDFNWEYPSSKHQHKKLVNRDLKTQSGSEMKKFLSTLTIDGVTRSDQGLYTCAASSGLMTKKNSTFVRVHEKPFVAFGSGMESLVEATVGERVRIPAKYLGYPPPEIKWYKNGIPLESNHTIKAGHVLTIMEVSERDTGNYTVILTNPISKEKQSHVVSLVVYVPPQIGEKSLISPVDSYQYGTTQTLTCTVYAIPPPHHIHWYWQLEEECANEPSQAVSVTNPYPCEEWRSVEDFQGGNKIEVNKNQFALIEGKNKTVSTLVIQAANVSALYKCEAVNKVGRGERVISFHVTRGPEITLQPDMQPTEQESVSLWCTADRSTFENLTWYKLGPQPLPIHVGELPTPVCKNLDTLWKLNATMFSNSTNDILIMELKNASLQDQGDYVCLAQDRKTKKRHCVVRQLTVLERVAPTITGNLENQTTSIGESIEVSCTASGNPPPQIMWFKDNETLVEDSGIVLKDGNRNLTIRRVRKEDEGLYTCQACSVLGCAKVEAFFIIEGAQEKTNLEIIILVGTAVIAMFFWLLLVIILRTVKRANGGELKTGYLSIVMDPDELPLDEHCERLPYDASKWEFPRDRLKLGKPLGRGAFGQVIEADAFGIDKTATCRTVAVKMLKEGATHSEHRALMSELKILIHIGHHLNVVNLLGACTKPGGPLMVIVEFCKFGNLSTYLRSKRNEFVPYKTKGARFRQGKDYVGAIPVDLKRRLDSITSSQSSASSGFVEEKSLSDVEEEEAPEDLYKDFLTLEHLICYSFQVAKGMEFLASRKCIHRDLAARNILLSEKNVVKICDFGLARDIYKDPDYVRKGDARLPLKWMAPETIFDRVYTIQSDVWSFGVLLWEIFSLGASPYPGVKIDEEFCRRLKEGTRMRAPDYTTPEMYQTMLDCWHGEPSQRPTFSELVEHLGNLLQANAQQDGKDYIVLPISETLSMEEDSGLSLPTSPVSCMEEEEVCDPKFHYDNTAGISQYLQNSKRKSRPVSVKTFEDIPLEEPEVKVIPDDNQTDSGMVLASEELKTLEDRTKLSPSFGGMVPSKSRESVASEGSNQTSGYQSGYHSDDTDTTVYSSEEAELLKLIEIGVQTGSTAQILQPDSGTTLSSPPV
half-life at 1 µM [1],half-life at 10 µM [2],pIC50 [3],pIC50 [4],pIC50 [5],pIC50 [6],SMILES
213 h,227 h,–,–,–,–,COCCOc1cc2ncnc(NC3=CC(=O)C(OC(C)C)=CC3=O)c2cc1OC
62 h,72 h,< 6.00,< 6.00,< 6.00,< 6.00,CCOC1=CC(=O)C(Nc2ncnc3cc(OCCOC)c(OC)cc23)=CC1=O
68 h,80 h,–,–,–,–,COCCOc1cc2ncnc(NC3=CC(=O)C(OC)=CC3=O)c2cc1OC
< 0.5 h,0.5 h,–,–,–,–,COCCOc1cc2ncnc(NC3=CC(=O)C(OC)=C(Cl)C3=O)c2cc1OC
73 h,85 h,–,–,–,–,COCCOc1cc2ncnc(NC3=CC(=O)C(N4CCN(Cc5ccccc5)CC4)=CC3=O)c2cc1OC
< 0.02 h,< 0.02 h,–,–,–,–,COCCOc1cc2ncnc(NC3=CC(=O)C(Oc4ccccc4)=CC3=O)c2cc1OC
–,–,< 6.00,–,< 6.00,< 6.00,COCCOc1cc2ncnc(NC3=CC(=O)C(NCC(C)O)=CC3=O)c2cc1OC (configuration not stated)
11 h,15 h,–,–,–,–,COCCOc1cc2ncnc(NC3=CC(=O)C(OC(CF)CF)=CC3=O)c2cc1OC
–,–,6.59,–,7.51,7.38,COCCOc1cc2ncnc(NC3=CC(=O)C(OCc4cccc(F)c4)=CC3=O)c2cc1OC
< 0.02 h,< 0.02 h,–,–,–,–,COCCOc1cc2ncnc(NC3=CC(=O)C(Oc4ccc(-n5ccnc5)cc4)=CC3=O)c2cc1OC
55 h,54 h,6.44,–,7.37,7.30,COCCOc1cc2ncnc(NC3=CC(=O)C(OCc4ccccc4)=CC3=O)c2cc1OC
2 h,3 h,–,–,–,–,COCCOc1cc2ncnc(NC3=CC(=O)C(SC)=CC3=O)c2cc1OC
341 h,295 h,–,–,–,–,COCCOc1cc2ncnc(NC3=CC(=O)C(N(C)c4ccccc4)=CC3=O)c2cc1OC
160 h,601 h,–,–,–,–,COCCOc1cc2ncnc(NC3=CC(=O)C(N(C)C)=CC3=O)c2cc1OC
< 0.02 h,< 0.02 h,–,–,–,–,COCCOc1cc2ncnc(NC3=CC(=O)C(Cl)=CC3=O)c2cc1OC
–,–,< 6.00,–,< 6.00,< 6.00,COCCOc1cc2ncnc(NC3=C(Sc4ccccn4)C(=O)C=C(OC)C3=O)c2cc1OC
